The test system of one data set is 293T cell. Nature of the data set: Inhibition of 293T cell proliferation (CTG, intracellular ATP). Conditions: Homo sapiens, HEK-293T, 72 h, compared to DMSO group, read-out: Inhibitory activity against 293T cell proliferation (IC50). Format: cell-based. As to the method: Jurkat or 293T cells were seeded into a 96-well plate at 3000 cells/well. After overnight adherence culture, the serially diluted compound in DMSO was added. After 72 h, the intracellular ATP level was determined by CTG. The IC50 for the inhibition of cell proliferation by the compounds was calculated compared to the DMSO group. Table 8. Inhibitory activity of compounds of the present disclosure against Jurkat/293T cell proliferation (IC50, µM)

Another data set deals with T1, HDAC10 (Homo sapiens, UniProt Q969S8).
T1 sequence (Q969S8 1-669): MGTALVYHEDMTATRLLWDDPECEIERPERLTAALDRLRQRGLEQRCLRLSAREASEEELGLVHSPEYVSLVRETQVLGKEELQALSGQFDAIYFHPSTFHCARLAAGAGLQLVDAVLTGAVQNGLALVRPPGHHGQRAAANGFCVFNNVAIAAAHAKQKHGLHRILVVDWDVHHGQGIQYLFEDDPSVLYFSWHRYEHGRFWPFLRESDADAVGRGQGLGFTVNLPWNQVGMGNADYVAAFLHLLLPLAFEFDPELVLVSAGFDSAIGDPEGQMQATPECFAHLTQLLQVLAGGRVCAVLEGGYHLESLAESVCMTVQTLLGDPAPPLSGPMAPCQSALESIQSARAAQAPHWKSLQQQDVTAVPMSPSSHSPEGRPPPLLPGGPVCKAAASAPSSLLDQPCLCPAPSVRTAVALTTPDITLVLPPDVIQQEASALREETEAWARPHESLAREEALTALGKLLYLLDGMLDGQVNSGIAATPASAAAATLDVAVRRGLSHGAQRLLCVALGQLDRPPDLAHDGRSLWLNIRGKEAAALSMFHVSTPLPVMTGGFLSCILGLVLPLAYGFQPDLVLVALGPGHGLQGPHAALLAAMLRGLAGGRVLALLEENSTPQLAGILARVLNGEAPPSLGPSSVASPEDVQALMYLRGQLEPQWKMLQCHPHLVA
Nature of the data set: HDAC enzyme inhibition, fluorometric assay. Conditions: read-out: Inhibitory activity against HDAC10 (IC50). The format is biochemical. As to the method:
Serially diluted DMSO sample solutions were added to the reaction wells, enzymes were added to a 384-well plate, and a reaction buffer was added to the control wells. The plate was incubated at room temperature for 15 min. After the fluorogenic substrate solution was added, the reaction was started. Fluorescence intensity readings (excitation: 355 nm, emission: 460 nm) were recorded every minute for 60 min using a Paradigm detector, and the slope values were calculated. Inhibition rate (%) = (maximum value - sample value)/(maximum value - minimum value) × 100%. The IC50 values were obtained by fitting a curve using the equation: Y = Bottom + (Top - Bottom)/(1 + (IC50/X)^HillSlope), where Y represents the inhibition rate and X represents the concentration of the compound. Table 10. Inhibitory activity of compound of the present disclosure against HDAC1, HDAC2, HDAC3, and HDAC10 (IC50, nM)

A short description of data set [1]: Metabolite identification in liver microsomes and hepatocytes from various species. The format is in vitro ADME. The conditions noted are these: 10 µM compound, 1.0 mg/mL liver microsomes, 37 °C, 120 min; mouse, rat, dog, monkey, human. As to the method:
After the 10 µM compound was separately incubated with 1.0 mg/mL liver microsomes or hepatocytes (from 5 species: mouse, rat, dog, monkey, and human), and an NADPH regeneration system at 37 °C for 120 min, a stop solution was added to terminate the reaction, and the incubated samples were removed from the water bath. After the reaction was terminated, the samples were vortexed and then centrifuged at 4 °C and 3260× g for 15 min. After centrifugation, all the supernatants were transferred to a 96-well plate for direct use in LC-MS analysis, or subjected to dilution or concentration and reconstitution prior to injection. An LC-UV-HRMSn (n = 1-2) analytical method was established on LC-UV-HRMSn, and data acquisition was performed using SCIEX OS software. The parent drug and the metabolites could be analyzed by mass spectrometry with different scanning modes (MS/MS or IDA) and ultraviolet full-wavelength scanning (λ = 190-500 nm). By comparing the ultraviolet and mass spectra of the post-incubation samples with those of blank samples from the same species, potential metabolites were identified. The possible structures of the metabolites were inferred by comparative analysis of the collision-induced dissociation (CID) fragments of the test compounds and their metabolites. The metabolites and their relative abundances were summarized in a table for interspecies comparison.
In general terms: Liver microsomes are a subcellular fraction often used to study metabolism.

The nature of data set [2]: Pharmacokinetic experiment in rats. Format: in vivo. Conditions: female, rat, plasma. As to the method:
Healthy female rats aged 6 to 8 weeks were intravenously administered and orally administered at doses of 1 mg/kg and 10 mg/kg. The rats were fasted overnight before the administration.
On the day of the experiment, animals in the intravenous group were given the corresponding compound by single injection via the tail vein at an administration volume of 10 mL/kg; and animals in the oral group were given the corresponding compound by single intragastric injection at an administration volume of 10 mL/kg. The sample collection time points were 0.083 h, 0.167 h, 0.5 h, 1 h, 2 h, 4 h, 8 h, and 24 h. About 200 µL of whole blood was collected through the neck at each time point and used to prepare plasma for concentration determination by high-performance liquid chromatography-tandem mass spectrometry (LC-MS/MS). The plasma concentrations were processed using a non-compartmental model of Winnolin pharmacokinetic software, and the pharmacokinetic parameters were calculated using a linear-log trapezoidal method. Table 14. Results of in vivo pharmacokinetic evaluation of compounds

The mark [3] stands for this setting: Injection (1 mg/kg), intravenous.

Structures are written as SMILES.

The AUC(0-t) is exposure summed from dosing to a finite time, without extrapolation to infinity. Lower therefore signals less exposure. One may read the clearance as the volume of plasma or blood freed of the substance per unit of time. A higher clearance goes with a high capacity for elimination. What is called half-life is the time needed for the level to fall by half in the phase considered. Lower therefore signals fast loss. Usually Cmax stands for the maximum level reached in the sampled fluid or tissue. As a reminder, the Tmax is the time from dosing to the highest level. As usually defined, the bioavailability is dose-corrected exposure relative to a reference, in per cent. Lower therefore signals little systemic uptake.

In the case of `Nc1cc(F)ccc1NC(=O)c1ccc(CNC(=O)/C=C/c2cccnc2)cc1` [Chidamide, reference compound], the IC50 is 6710 nM with 293T cell and 318 nM on HDAC10.
Consider `[2H]c1cc(C(=O)Nc2ccc(F)cc2N)ccc1CNC(=O)/C=C/c1cccnc1` [Compound 5, (E)-N-(2-amino-4-fluorophenyl)-4-((3-(pyridin-3-yl)acrylamido)methyl)-3-d benzamide], for which the IC50 in the data set with 293T cell is above 10000 nM. The IC50 on HDAC10 was found to be 127 nM. The “metabolic pathways and stability in liver microsomes from all the species” value in data set [1] is “simple metabolic pathways and good stability in liver microsomes from all the species”. In data set [2] (setting [3]), this compound gave an AUC(0-t) of 1260 ng·h/mL, a clearance of 12.9 mL/min/kg and a half-life of 6.54 h. The Vd in data set [2] (Injection (1 mg/kg), intravenous, read-out: Vdss) is 2.42 L/kg. Further, in data set [2] (Oral administration (10 mg/kg)), the exposure AUC(0-t) turned out to be 5150 ng·h/mL, the Cmax is 3420 ng/mL, the Tmax turned out to be 9.6 min and the bioavailability worked out at 40.1%. For the same compound, the half-life in data set [2] (Oral administration (10 mg/kg)) is 4.01 h.

The values above are taken from patent EP4631931A1, “HDAC INHIBITOR AND USE THEREOF” (Wigen Biomedicine Technology (Shanghai) Co., Ltd., priority 2022, dated 2024).
